Data taken from ChEMBL document CHEMBL5465560, “Selectivity Literature for EUbOPEN Chemogenomic Library” (2024).

What was measured:
[1] = molecular target: Kappa-type opioid receptor (Homo sapiens, UniProt P41145); assay: Selectivity interaction (GPCR panel (PDSP screen)) EUB0001079a OPRK1; details: at 10 µM
[2] = molecular target: T1, Non-receptor tyrosine-protein kinase TNK1 (Homo sapiens) (UniProt Q13470); assay: Selectivity interaction (Kinase panel (Z-LYTE Assay)) EUB0001632a TNK1; details: at 10 µM
T1 sequence (whole entry): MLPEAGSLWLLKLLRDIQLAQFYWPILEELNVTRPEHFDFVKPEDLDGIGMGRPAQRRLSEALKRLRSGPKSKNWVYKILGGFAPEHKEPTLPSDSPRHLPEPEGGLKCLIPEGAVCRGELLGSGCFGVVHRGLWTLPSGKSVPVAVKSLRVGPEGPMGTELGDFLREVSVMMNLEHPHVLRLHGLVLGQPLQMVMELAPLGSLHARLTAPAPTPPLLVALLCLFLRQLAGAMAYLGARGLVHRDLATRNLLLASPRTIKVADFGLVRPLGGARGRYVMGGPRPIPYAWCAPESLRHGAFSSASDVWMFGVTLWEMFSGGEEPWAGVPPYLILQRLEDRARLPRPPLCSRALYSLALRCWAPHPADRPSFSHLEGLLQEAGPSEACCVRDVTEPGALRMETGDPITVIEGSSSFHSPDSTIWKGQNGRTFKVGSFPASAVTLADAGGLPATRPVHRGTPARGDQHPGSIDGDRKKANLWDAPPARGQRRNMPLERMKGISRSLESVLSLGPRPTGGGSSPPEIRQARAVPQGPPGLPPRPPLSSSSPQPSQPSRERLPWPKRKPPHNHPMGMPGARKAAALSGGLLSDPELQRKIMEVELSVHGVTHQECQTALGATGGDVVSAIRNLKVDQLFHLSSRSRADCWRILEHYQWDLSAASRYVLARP

[3] = molecular target: Phosphatidylinositol 4-phosphate 3-kinase C2 domain-containing subunit beta (Homo sapiens) (UniProt O00750); assay: Selectivity interaction (Adapta Assay) EUB0001632a PIK3C2B; details: at 10 µM
Chain of Phosphatidylinositol 4-phosphate 3-kinase C2 domain-containing subunit beta (Homo sapiens) (O00750 whole entry, the tested form may be a part): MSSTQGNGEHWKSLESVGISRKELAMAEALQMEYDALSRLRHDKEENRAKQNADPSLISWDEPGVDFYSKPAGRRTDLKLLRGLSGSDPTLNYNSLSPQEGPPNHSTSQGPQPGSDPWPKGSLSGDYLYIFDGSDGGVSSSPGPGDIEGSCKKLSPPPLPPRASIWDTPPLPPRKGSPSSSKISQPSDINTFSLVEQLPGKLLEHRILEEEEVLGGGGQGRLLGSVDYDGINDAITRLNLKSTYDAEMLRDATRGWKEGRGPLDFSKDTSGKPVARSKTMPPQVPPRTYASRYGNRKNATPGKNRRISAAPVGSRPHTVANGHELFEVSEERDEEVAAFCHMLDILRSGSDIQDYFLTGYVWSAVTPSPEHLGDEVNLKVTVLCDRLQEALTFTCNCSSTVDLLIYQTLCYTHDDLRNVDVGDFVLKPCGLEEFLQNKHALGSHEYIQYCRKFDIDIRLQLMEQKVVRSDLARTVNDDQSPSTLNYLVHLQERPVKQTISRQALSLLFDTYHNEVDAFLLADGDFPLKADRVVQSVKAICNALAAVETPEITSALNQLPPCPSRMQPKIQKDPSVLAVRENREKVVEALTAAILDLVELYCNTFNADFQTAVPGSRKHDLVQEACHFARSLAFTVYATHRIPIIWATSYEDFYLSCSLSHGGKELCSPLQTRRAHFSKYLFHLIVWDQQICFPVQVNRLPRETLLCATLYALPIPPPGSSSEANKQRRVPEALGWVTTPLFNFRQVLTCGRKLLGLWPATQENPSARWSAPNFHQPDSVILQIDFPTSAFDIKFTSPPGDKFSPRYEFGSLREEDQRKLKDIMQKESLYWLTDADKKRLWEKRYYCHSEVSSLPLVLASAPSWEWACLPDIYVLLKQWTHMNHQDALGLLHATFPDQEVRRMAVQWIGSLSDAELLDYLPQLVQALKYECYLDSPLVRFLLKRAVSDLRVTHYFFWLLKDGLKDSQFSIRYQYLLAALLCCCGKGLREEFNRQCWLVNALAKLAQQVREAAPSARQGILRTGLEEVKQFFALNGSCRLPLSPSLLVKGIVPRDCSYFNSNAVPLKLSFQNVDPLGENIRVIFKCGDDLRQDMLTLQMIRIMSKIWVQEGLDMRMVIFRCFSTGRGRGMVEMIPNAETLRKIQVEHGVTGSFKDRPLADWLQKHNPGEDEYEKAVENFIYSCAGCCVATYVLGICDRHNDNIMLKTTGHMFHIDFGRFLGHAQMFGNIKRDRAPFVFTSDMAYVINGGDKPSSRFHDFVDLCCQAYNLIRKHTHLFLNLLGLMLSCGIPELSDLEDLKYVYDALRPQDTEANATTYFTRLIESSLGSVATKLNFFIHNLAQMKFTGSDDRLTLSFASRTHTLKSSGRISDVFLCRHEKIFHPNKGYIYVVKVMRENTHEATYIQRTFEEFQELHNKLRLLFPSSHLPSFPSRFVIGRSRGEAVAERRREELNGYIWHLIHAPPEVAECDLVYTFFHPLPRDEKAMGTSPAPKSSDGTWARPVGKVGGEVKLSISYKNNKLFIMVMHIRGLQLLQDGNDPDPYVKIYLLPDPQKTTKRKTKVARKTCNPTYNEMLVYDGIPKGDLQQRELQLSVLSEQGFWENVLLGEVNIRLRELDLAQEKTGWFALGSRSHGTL

[4] = molecular target: Insulin-like growth factor 1 receptor (Homo sapiens, UniProt P08069); assay: Selectivity interaction (Kinase screening (Nanosyn)) EUB0000604a IGF1R
[5] = molecular target: Ribosomal protein S6 kinase beta-2 (Homo sapiens) (UniProt Q9UBS0); assay: Selectivity interaction (ProQinase) EUB0000171b RPS6KB2
Chain of Ribosomal protein S6 kinase beta-2 (Homo sapiens) (Q9UBS0 whole entry): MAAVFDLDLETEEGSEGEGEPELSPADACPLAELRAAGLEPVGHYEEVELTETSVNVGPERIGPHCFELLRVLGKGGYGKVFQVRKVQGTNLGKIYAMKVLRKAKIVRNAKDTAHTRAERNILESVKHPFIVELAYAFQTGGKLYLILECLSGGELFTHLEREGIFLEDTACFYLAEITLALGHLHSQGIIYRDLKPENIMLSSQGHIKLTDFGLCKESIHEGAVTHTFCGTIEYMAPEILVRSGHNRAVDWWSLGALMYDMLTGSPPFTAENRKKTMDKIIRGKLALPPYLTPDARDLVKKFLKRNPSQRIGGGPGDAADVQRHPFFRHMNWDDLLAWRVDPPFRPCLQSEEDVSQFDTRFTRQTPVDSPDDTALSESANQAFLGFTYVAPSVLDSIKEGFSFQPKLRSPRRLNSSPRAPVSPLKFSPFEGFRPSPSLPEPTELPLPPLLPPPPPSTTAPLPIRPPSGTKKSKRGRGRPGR

[6] = molecular target: aryl hydrocarbon receptor (AHR) (Homo sapiens, UniProt P35869); assay: Selectivity interaction (Panel of kinases, GPCRs, ion channels and transporters (enzymatic assay)) EUB0000223bCl AHR
[7] = molecular target: T2, Dual specificity mitogen-activated protein kinase kinase 6 (Homo sapiens) (UniProt P52564); assay: Selectivity interaction (KinomeScan (DiscoverX)) EUB0001619a MAP2K6; details: at 1 µM
T2 sequence (whole entry): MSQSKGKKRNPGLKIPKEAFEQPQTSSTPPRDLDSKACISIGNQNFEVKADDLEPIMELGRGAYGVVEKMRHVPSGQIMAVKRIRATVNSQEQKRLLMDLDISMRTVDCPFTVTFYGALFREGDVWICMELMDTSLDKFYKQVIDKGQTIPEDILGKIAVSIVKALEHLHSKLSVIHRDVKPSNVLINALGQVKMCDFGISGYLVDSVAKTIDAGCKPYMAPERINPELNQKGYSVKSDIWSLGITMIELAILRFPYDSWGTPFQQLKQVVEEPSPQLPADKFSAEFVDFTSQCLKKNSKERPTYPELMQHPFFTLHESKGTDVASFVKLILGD

[8] = tested on: Mast/stem cell growth factor receptor Kit (Homo sapiens), P10721 [V559D]; assay: (§1) Selectivity interaction (KinomeScan (DiscoverX)) EUB0001619a KIT; details: at 1 µM
Chain of Mast/stem cell growth factor receptor Kit (Homo sapiens), P10721 [V559D] (P10721 whole entry V559D): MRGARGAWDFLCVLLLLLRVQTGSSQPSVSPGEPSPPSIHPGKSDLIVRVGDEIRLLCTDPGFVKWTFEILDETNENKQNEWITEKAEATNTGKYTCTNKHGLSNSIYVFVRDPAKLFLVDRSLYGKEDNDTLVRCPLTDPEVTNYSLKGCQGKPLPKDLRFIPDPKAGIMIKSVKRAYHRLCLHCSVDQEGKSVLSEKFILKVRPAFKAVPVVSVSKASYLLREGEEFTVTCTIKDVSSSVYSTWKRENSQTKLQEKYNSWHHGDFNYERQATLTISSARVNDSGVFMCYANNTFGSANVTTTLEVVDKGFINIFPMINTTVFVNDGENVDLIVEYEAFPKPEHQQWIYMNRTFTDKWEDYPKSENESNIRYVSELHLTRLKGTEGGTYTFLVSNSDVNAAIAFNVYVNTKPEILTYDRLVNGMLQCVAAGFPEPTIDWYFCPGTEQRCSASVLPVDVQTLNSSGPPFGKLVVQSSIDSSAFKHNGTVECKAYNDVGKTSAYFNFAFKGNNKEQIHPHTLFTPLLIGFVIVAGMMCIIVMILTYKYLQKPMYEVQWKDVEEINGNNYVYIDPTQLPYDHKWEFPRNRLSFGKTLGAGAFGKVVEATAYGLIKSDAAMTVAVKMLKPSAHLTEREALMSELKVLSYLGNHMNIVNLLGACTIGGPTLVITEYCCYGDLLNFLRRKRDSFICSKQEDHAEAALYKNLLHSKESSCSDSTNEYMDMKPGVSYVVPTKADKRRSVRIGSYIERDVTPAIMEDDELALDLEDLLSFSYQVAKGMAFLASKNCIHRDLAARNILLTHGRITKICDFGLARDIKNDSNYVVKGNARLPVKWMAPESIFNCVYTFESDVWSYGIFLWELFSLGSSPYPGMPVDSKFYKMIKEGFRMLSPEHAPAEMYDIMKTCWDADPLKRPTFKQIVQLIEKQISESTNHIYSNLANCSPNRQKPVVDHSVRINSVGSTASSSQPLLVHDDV

[9] = molecular target: Mast/stem cell growth factor receptor Kit (Homo sapiens, UniProt P10721); assay: as §1; details: at 1 µM
[10] = tested on: Mast/stem cell growth factor receptor Kit (Homo sapiens), P10721 [V559D,V654A]; assay: as §1; details: at 1 µM
[11] = tested on: Mast/stem cell growth factor receptor Kit (Homo sapiens), P10721 [D816H]; assay: as §1; details: at 1 µM
[12] = tested on: Mast/stem cell growth factor receptor Kit (Homo sapiens), P10721 [D816V]; assay: as §1; details: at 1 µM
[13] = tested on: Mast/stem cell growth factor receptor Kit (Homo sapiens), P10721 [L576P]; assay: as §1; details: at 1 µM
Chain of Mast/stem cell growth factor receptor Kit (Homo sapiens), P10721 [L576P] (P10721 whole entry L576P): as the sequence (P10721 whole entry V559D) above, with D559V, L576P counted along it

[14] = tested on: Mast/stem cell growth factor receptor Kit (Homo sapiens), P10721 [V559D,T670I]; assay: as §1; details: at 1 µM
[15] = tested on: Mast/stem cell growth factor receptor Kit (Homo sapiens), P10721 [A829P]; assay: as §1; details: at 1 µM
Chain of Mast/stem cell growth factor receptor Kit (Homo sapiens), P10721 [A829P] (P10721 whole entry A829P): as the sequence (P10721 whole entry V559D) above, with D559V, A829P counted along it

[16] = molecular target: Protein-arginine deiminase type-4 (Homo sapiens, UniProt Q9UM07); assay: Selectivity interaction (Fluorescence polarization ligand binding assay (2 mM calcium)) EUB0000266bCl PADI4
[17] = molecular target: T3, Activin receptor type-1B (Homo sapiens) (UniProt P36896); assay: Selectivity interaction (Kinase panel (Invitrogen)) EUB0000639a ACVR1B; details: at 200 nM
T3 sequence (whole entry): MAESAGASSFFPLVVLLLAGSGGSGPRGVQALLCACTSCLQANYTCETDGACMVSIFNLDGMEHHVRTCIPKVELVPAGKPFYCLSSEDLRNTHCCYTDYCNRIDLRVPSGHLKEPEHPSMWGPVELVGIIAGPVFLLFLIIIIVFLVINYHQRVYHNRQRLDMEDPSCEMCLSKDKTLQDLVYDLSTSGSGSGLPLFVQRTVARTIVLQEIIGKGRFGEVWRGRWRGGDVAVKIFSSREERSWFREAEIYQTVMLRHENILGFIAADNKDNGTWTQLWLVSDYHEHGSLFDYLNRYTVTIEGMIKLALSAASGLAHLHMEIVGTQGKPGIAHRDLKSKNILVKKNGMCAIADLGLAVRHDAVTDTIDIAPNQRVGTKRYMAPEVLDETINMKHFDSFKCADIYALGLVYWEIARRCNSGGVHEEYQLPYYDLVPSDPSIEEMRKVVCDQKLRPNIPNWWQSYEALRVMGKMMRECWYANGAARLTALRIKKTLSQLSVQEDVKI

[18] = tested on: Serine/threonine-protein kinase B-raf (Homo sapiens), P15056 [V600E]; details: at 10 µM

How did the % of inhibition [1] turn out when `Nc1cnc(N2CCc3cc(S(=O)(=O)Nc4c(F)cc(Cl)cc4F)cc(N4CCCC4=O)c32)nc1` [TP-020n] was run?
The % of inhibition was 14.9%.

What does the source list for `Cn1cc(-n2cnc3c(NCc4nc5cc(Cl)c(Cl)cc5[nH]4)nc(N4CCOCC4)nc32)cn1`?
% of control [2]: 4.62%; % of inhibition [3]: 64.1%

How did the % of inhibition [4] turn out when `Cc1cnc(Nc2ccc(F)cc2Cl)nc1-c1c[nH]c(C(=O)N[C@H](CO)c2cccc(Cl)c2)c1` was run?
Its % of inhibition is 2%.

Which % of control ([5]; at 1 µM) does the source give for `C=CC(=O)Nc1cccc(C(=O)Nc2ccc(Nc3cc(-c4[nH]c(SC)nc4C)ccn3)cc2)c1` here?
Its % of control is 87%.

And the % of control ([5]; at 5 µM)?
Its % of control is 79%.

`COc1cc(C(=O)N2CC[C@@H](O)[C@@H](N)C2)cc2nc(-c3cc4ccccc4n3CC3CC3)n(C)c12` was tested. Which XC50 [6] did it give?
Its XC50 is 79.4 µM.

How did the % of control [7] turn out when `N#Cc1cccc(-c2c[nH]c3ncnc(N4CCOCC4)c23)c1` was run?
The % of control was 80%.

And the % of control [8]?
The % of control was 100%.

What about the % of control [9] of the same molecule?
Its % of control is 100%.

What about the % of control [10] of the same molecule?
The % of control was 72%.

What about the % of control [11] of the same molecule?
The % of control was 92%.

And the % of control [12]?
The % of control was 99%.

What about the % of control [13] of the same molecule?
The % of control was 89%.

What about the % of control [14] of the same molecule?
The % of control was 100%.

What about the % of control [15] of the same molecule?
Its % of control is 50%.

How did the IC50 [16] turn out when `CCn1c(-c2nc3cc(C(=O)N4CCCC(N)C4)ccc3n2C)cc2ccccc21` (centres undefined) was run?
The IC50 was 0.25 µM.

Which % of inhibition [17] does the source give for `CC[C@@H]1[C@H](F)C(=O)N[C@@H]1COc1nccc2cc(C(N)=O)c(OC)cc12` [ZIMLOVISERTIB] here?
Its % of inhibition is 2.54%.

`CN(C)CCOc1ccc(-c2nc(-c3ccncc3)c(-c3ccc4c(c3)CC/C4=N\O)[nH]2)cc1` was tested. Which % of control [18] did it give?
Its % of control is 0%.
